Test results published in patent US9079913B2, “Spiro-oxindole MDM2 antagonists” (The Regents of the University of Michigan, priority 2009, dated 2015).
Read-outs that look alike come from different tables or passages of the source. Values belong to the molecule of their own block, whether it stands above or below them.

What was measured:
SJSA-1 xenograft tumors = test: In vivo efficacy, SJSA-1 xenograft model (tumor volume); parameters: species or system C.B-17 SCID mice; details: PO 100 mg/kg; for % Tumor Growth Inhib. T/C Control 750 mm^3 D24: Exp. No. 2, SJSA-1 xenograft; for % Tumor Growth Inhib. T/C Control 750 mm^3 D27: Exp. No. 1, SJSA-1 xenograft
Protocol: SJSA-1 tumor cells were harvested with Trypsin (0.05%)-EDTA (0.53 mM) (GIBCO™, Invitrogen Corp.), growth medium added and cells placed on ice. A cell sample was mixed 1:1 with Trypan Blue (GIBCO™, Invitrogen Corp.) and counted on a hemocytometer to determine the number of live/dead cells. Cells were washed once with 1×PBS (GIBCO™, Invitrogen Corp.) and resuspended in PBS. For Matrigel injections, after washing in PBS, cells are resuspended in an ice cold mixture of 1:1 PBS and Matrigel (BD Biosciences, Invitrogen Corp.) for a final Matrigel protein concentration of 5 mg/ml. SJSA-1 tumors were inoculated into C.B-17 SCID mice at 5×10^6 cells in 0.1 ml with Matrigel. Cells were injected s.c. into the flank region of each mouse using a 27 gauge needle.
The size of tumors growing in the mice was measured in two dimensions using calipers. Tumor volume (mm^3)=(A×B2)/2 where A and B are the tumor length and width (in mm), respectively. During treatment, tumor volume and body weight was measured three times a week. […] Mice were kept for an additional 60 days for further observation of tumor growth and toxicity.
Mice with tumors within acceptable size range were randomized into treatment groups of 8 mice for experimental compounds and 10 mice for the Control group. Experimental compounds were given orally, once per day for 2-3 weeks.

[1] = test system: cancer cell lines with wild-type p53 / mutated or deleted p53 (ATCC); test: Cell growth assay (WST-8), other cancer cell lines; assay type: cell-based; details: Homo sapiens
[2] = test system: Isogenic HCT-116 colon cancer cell lines; test: cells; assay type: cell-based; details: Homo sapiens;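 note: cells grown in 96-well plates in McCoy's 5A medium with 10% FBS, exposed to compound for 4 days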
Protocol: Cells were seeded in 96-well flat bottom cell culture plates at a density of 2−3×10^3 cells/well with compounds and incubated for 4 days.

[3] = biological target: recombinant human His-tagged MDM2 protein (residues 1-118) (Homo sapiens (Human), UniProt Q00987); test: Fluorescence-polarization MDM2 binding assay; details: Table 19A; FP binding assay; read-out: MDM2 IC50;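 note: fluorescence polarization read after three hours of incubation in potassium phosphate buffer containing bovine gamma globulin and Triton X-100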
[4] = In vitro microsomal stability, human; assay type: in vitro ADME; details: for microsomal stability (in words) / % of compound remaining when incubated in human liver microsomes with NADPH: human liver microsomes; for Microsomal stability, % remaining: Human microsomes
[5] = In vitro microsomal stability, rat; assay type: in vitro ADME; details: for microsomal stability (in words) / % of compound remaining when incubated in rat liver microsomes with NADPH: rat liver microsomes; for Microsomal stability, % remaining: Rat microsomes
[6] = Pharmacokinetic studies in rats; assay type: in vivo, rat
Protocol: Pharmacokinetic studies on MDM2 inhibitors were carried out in rat. For comparison, the MDM2 inhibitor, AT-219, was also studied.

[7] = In vitro microsomal stability, dog; assay type: in vitro ADME; details: for Microsomal stability, % remaining: Dog microsomes; for microsomal stability (in words): dog microsomes
[8] = Microsomal stability study, negative control incubation; assay type: in vitro ADME
[9] = LNCaP, read-out: LNCAP (p53 wild-type) IC50
[10] = PC-3, read-out: PC-3 (deleted p53) IC50
[11] = SJSA-1, read-out: SJSA-1 (p53 wild-type) IC50
[12] = HCT-116, read-out: HCT-116 (p53-/-) IC50
[13] = HCT-116, read-out: HCT-116 (p53 wild-type) IC50
[14] = LNCaP, Table 19A, LNCAP cells, p53 wild-type, cell growth, read-out: LNCAP (p53 wild-type) IC50
[15] = PC-3, Table 19A, PC-3 cells, deleted p53, cell growth, read-out: PC-3 (deleted p53) IC50
[16] = SJSA-1, Table 19A, SJSA-1 cells, p53 wild-type, cell growth, read-out: SJSA-1 (p53 wild-type) IC50
[17] = HCT-116, read-out: HCT-116 (p53-/-) IC50, Table 19A, HCT-116 p53-/-, cell growth
[18] = HCT-116, read-out: HCT-116 (p53 wild-type) IC50, Table 19A, HCT-116 p53 wild-type, cell growth

Chain of recombinant human His-tagged MDM2 protein (residues 1-118) (Q00987 1-118): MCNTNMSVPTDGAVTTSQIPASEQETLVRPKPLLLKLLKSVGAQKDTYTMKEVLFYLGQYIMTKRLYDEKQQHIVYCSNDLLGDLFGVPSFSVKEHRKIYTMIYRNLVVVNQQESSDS

Structure (SMILES): CC(C)(C)C[C@H]1N[C@@H](C(=O)NCC(C)(C)O)[C@H](c2cccc(Cl)c2F)[C@@]12C(=O)Nc1cc(Cl)ccc12 [MI-519-62]
% Tumor Growth Inhib. T/C Control 750 mm^3 D24 (SJSA-1 xenograft tumors): 59.5% | IC50 [1, 9]: < 3000 nM | IC50 [1, 10]: > 10000 nM | IC50 [1, 11]: < 3000 nM | IC50 [2, 12]: > 10000 nM | IC50 [2, 13]: < 3000 nM

Structure (SMILES): CC(C)(C)C[C@H]1N[C@@H](C(=O)NC2CCN(S(C)(=O)=O)CC2)[C@H](c2cccc(Cl)c2F)[C@@]12C(=O)Nc1cc(Cl)ccc12 [MI-779]
IC50 [3]: < 100 nM | % Tumor Growth Inhib. T/C Control 750 mm^3 D24 (SJSA-1 xenograft tumors): 66.1% | IC50 [1, 14]: 1300 nM | IC50 [1, 15]: 11600 nM | IC50 [1, 16]: 1000 nM | IC50 [2, 17]: 13600 nM | IC50 [2, 18]: 2500 nM

Structure (SMILES): CCNC(=O)N1CCC(NC(=O)[C@@H]2N[C@H](CC(C)(C)C)[C@]3(C(=O)Nc4cc(Cl)ccc43)[C@H]2c2cccc(Cl)c2F)CC1 [MI-781]
IC50 [3]: < 100 nM | % Tumor Growth Inhib. T/C Control 750 mm^3 D24 (SJSA-1 xenograft tumors): 75.5% | IC50 [1, 16]: 700 nM | IC50 [2, 17]: 10100 nM | IC50 [2, 18]: 400 nM

Structure (SMILES): CC(C)(C)C[C@H]1N[C@@H](C(=O)NCCN2CCN(S(C)(=O)=O)CC2)[C@H](c2cccc(Cl)c2F)[C@@]12C(=O)Nc1cc(Cl)ccc12 [MI-519-49]
IC50 [3]: < 1000 nM | % Tumor Growth Inhib. T/C Control 750 mm^3 D27 (SJSA-1 xenograft tumors): 63.8% | IC50 [1, 14]: 850 nM | IC50 [1, 15]: 8100 nM | IC50 [2, 17]: 12700 nM | IC50 [2, 18]: 840 nM

Structure (SMILES): CC(C)(C)C[C@H]1N[C@@H](C(=O)N[C@H]2CC[C@@H](O)C2)[C@H](c2cccc(Cl)c2F)[C@@]12C(=O)Nc1cc(Cl)ccc12 [MI-519-51]
microsomal stability (in words) [4]: inferior stability to MI-219 | % of compound remaining when incubated in human liver microsomes with NADPH ([4]; 0 min): 100.00% | % of compound remaining when incubated in human liver microsomes with NADPH ([4]; 5 min): 36.05% | % of compound remaining when incubated in human liver microsomes with NADPH ([4]; 10 min): 9.88% | % of compound remaining when incubated in human liver microsomes with NADPH ([4]; 15 min): 3.95% | % of compound remaining when incubated in human liver microsomes with NADPH ([4]; 30 min): 0.00% | % of compound remaining when incubated in human liver microsomes with NADPH ([4]; 45 min): 0.00% | % of compound remaining when incubated in human liver microsomes with NADPH ([4]; 60 min): 0.00% | half-life ([4]; human, liver microsomes, human liver microsomes with NADPH): 3.15 min | microsomal stability (in words) [5]: inferior stability to MI-219 | % of compound remaining when incubated in rat liver microsomes with NADPH ([5]; 0 min): 100.00% | % of compound remaining when incubated in rat liver microsomes with NADPH ([5]; 5 min): 12.77% | % of compound remaining when incubated in rat liver microsomes with NADPH ([5]; 10 min): 2.84% | % of compound remaining when incubated in rat liver microsomes with NADPH ([5]; 15 min): 0.83% | % of compound remaining when incubated in rat liver microsomes with NADPH ([5]; 30 min): 0.00% | % of compound remaining when incubated in rat liver microsomes with NADPH ([5]; 45 min): 0.00% | % of compound remaining when incubated in rat liver microsomes with NADPH ([5]; 60 min): 0.00% | half-life ([5]; rat, liver microsomes, rat liver microsomes with NADPH): 2.18 min | % Tumor Growth Inhib. T/C Control 750 mm^3 D27 (SJSA-1 xenograft tumors): 34.0% | CLz ([6]; rat, IV, 5 mg/kg, plasma, parent compound): 75 mL/min/kg | Vd ([6]; rat, plasma, iv, 5 mg/kg, rat, IV, 5 mg/kg, plasma, parent compound, read-out: Vz): 7.5 L/kg | pharmacokinetic profile (in words) ([6]; rats, intravenous and oral routes of dosing): inferior overall PK parameters to MI-219 | IC50 [1, 9]: 600 ± 200 nM | IC50 [1, 10]: 8200 ± 2500 nM | IC50 [1, 11]: 600 ± 200 nM | IC50 [2, 12]: 13400 ± 800 nM | IC50 [2, 13]: 600 ± 300 nM

Structure (SMILES): C[C@H](N)C(=O)OC1CCC(NC(=O)[C@@H]2N[C@H](CC(C)(C)C)[C@]3(C(=O)Nc4cc(Cl)ccc43)[C@H]2c2cccc(Cl)c2F)CC1 (stereo partly shown) [MI-774]
IC50 [3]: < 100 nM | % Tumor Growth Inhib. T/C Control 750 mm^3 D24 (SJSA-1 xenograft tumors): 21.4% | oral bioavailability / oral pharmacokinetics in rats (in words) ([6]; oral dosing, rats): good oral bioavailability | IC50 [1, 14]: 300 nM | IC50 [1, 16]: 300 ± 100 nM | IC50 [2, 17]: 5600 nM | IC50 [2, 18]: 300 ± 100 nM

Microsomal stability, % remaining ([4]; 0 min): 100.00% | Microsomal stability, % remaining ([4]; 5 min): 82.09% | Microsomal stability, % remaining ([4]; 10 min): 60.88% | Microsomal stability, % remaining ([4]; 15 min): 43.86% | Microsomal stability, % remaining ([4]; 30 min): 24.79% | Microsomal stability, % remaining ([4]; 45 min): 10.66% | Microsomal stability, % remaining ([4]; 60 min): 16.31% | microsomal stability (in words) [4]: metabolized fairly rapidly | Microsomal stability, % remaining ([5]; 0 min): 100.00% | Microsomal stability, % remaining ([5]; 5 min): 64.80% | Microsomal stability, % remaining ([5]; 10 min): 41.96% | Microsomal stability, % remaining ([5]; 15 min): 30.71% | Microsomal stability, % remaining ([5]; 30 min): 23.11% | Microsomal stability, % remaining ([5]; 45 min): 23.01% | Microsomal stability, % remaining ([5]; 60 min): 24.01% | microsomal stability (in words) [5]: metabolized fairly rapidly | Microsomal stability, % remaining ([7]; 0 min): 100.00% | Microsomal stability, % remaining ([7]; 5 min): 108.25% | Microsomal stability, % remaining ([7]; 10 min): 69.29% | Microsomal stability, % remaining ([7]; 15 min): 57.20% | Microsomal stability, % remaining ([7]; 30 min): 41.84% | Microsomal stability, % remaining ([7]; 45 min): 29.39% | Microsomal stability, % remaining ([7]; 60 min): 27.06% | microsomal stability (in words) [7]: metabolized fairly rapidly | Microsomal stability, % remaining ([8]; 0 min): 100.00% | Microsomal stability, % remaining ([8]; 5 min): 95.37% | Microsomal stability, % remaining ([8]; 10 min): 90.75% | Microsomal stability, % remaining ([8]; 15 min): 96.26% | Microsomal stability, % remaining ([8]; 30 min): 86.12% | Microsomal stability, % remaining ([8]; 45 min): 91.41% | Microsomal stability, % remaining ([8]; 60 min): 85.90%
Structure (SMILES): CC(C)(C)C[C@H]1N[C@@H](C(=O)NCC[C@H](O)CO)[C@H](c2ccc(F)c(Cl)c2)[C@@]12C(=O)Nc1cc(Cl)c(F)cc12 [MI-319, reference compound]

Structure (SMILES): CC(C)(C)C[C@H]1N[C@@H](C(N)=O)[C@H](c2cccc(Cl)c2F)[C@@]12C(=O)Nc1cc(Cl)ccc12 [MI-519-50]
IC50 [3]: < 1000 nM | % Tumor Growth Inhib. T/C Control 750 mm^3 D27 (SJSA-1 xenograft tumors): 41.1% | IC50 [1, 14]: 1300 ± 400 nM | IC50 [1, 15]: 16900 ± 4500 nM | IC50 [1, 16]: 1700 ± 1700 nM | IC50 [2, 17]: 23700 nM | IC50 [2, 18]: 900 ± 200 nM

Microsomal stability, % remaining ([4]; 0 min): 100.00% | Microsomal stability, % remaining ([4]; 5 min): 78.23% | Microsomal stability, % remaining ([4]; 10 min): 58.01% | Microsomal stability, % remaining ([4]; 15 min): 41.59% | Microsomal stability, % remaining ([4]; 30 min): 19.67% | Microsomal stability, % remaining ([4]; 45 min): 10.81% | Microsomal stability, % remaining ([4]; 60 min): 7.18% | microsomal stability (in words) [4]: metabolized fairly rapidly | Microsomal stability, % remaining ([5]; 0 min): 100.00% | Microsomal stability, % remaining ([5]; 5 min): 68.05% | Microsomal stability, % remaining ([5]; 10 min): 31.04% | Microsomal stability, % remaining ([5]; 15 min): 16.85% | Microsomal stability, % remaining ([5]; 30 min): 6.18% | Microsomal stability, % remaining ([5]; 45 min): 4.40% | Microsomal stability, % remaining ([5]; 60 min): 3.43% | microsomal stability (in words) [5]: metabolized fairly rapidly | Microsomal stability, % remaining ([7]; 0 min): 100.00% | Microsomal stability, % remaining ([7]; 5 min): 77.84% | Microsomal stability, % remaining ([7]; 10 min): 47.98% | Microsomal stability, % remaining ([7]; 15 min): 44.83% | Microsomal stability, % remaining ([7]; 30 min): 21.52% | Microsomal stability, % remaining ([7]; 45 min): 17.08% | Microsomal stability, % remaining ([7]; 60 min): 12.15% | microsomal stability (in words) [7]: metabolized fairly rapidly | Microsomal stability, % remaining ([8]; 0 min): 100.00% | Microsomal stability, % remaining ([8]; 5 min): 94.73% | Microsomal stability, % remaining ([8]; 10 min): 90.77% | Microsomal stability, % remaining ([8]; 15 min): 93.43% | Microsomal stability, % remaining ([8]; 30 min): 94.14% | Microsomal stability, % remaining ([8]; 45 min): 91.07% | Microsomal stability, % remaining ([8]; 60 min): 85.38%
Structure (SMILES): CC(C)(C)C[C@H]1N[C@@H](C(=O)NCC[C@H](O)CO)[C@H](c2cccc(Cl)c2F)[C@@]12C(=O)Nc1cc(Cl)ccc12 [MI-147, reference compound]
